Columns and labels:
Kinetic solubility assay = format: physicochemical; conditions: kinetic solubility, 50 mM PB (pH 7.4), shaken 24 hours at RT
Procedure, shortened: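 Test compounds from 10 mM DMSO stock were diluted in 50 mM phosphate buffer, pH 7.4, and shaken for 24 h at RT. After PTFE filtration and centrifugation, filtrate concentration was quantified by UPLC-UV/HPLC-UV against a standard curve.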

CYP3A4 = assay: Hepatocyte CYP induction assay, CYP3A4 gene expression; format: in vitro ADME; conditions: human hepatocytes
Procedure: Exemplary compounds were tested for ability to induce CYP3A4 and/or CYP1A2 in hepatocytes. Procedures and results are described below.
Cryopreserved human hepatocytes were purchased from BioIVT (Baltimore, MD, USA), and they were stored in liquid nitrogen before using. The detailed information of hepatocytes is as follows:
Fresh dosing solutions of test compounds, and Rifampicin were prepared in the incubation medium on the day of dosing.
Cryopreserved hepatocytes were thawed and counted to determine yield, viability was measured. Hepatocytes at the concentrations of 0.7 million/mL were transferred to collagen-coated 96-well plates for attachment (0.1 mL viable cells/well). After allowing 4 to 5 hours for attachment of cells, the plating medium was replaced with Incubation Medium containing 2% (v/v) Matrigel™ (sandwich medium) and the hepatocytes were incubated until use.
All incubations were conducted at 37° C., 5% CO2, and saturated humidity.
The sandwich medium was removed and the hepatocytes were treated with incubation solutions containing test articles in vehicle (0.1% DMSO), or positive control for 24 hours after the cultures were established. The incubation solution was aspirated and replaced with incubation solution containing the same concentrations of test articles, vehicle, or positive controls for an additional 24 hours. The total treatment period was 48 hours. Triplicate were used for each concentration of test compound and positive control.
After treatment period of 48 hours, the incubation solution was aspirated. Hepatocytes were washed once with pre-warmed HBSS and incubated with 140 μL of RLT (lysis buffer from Rneasy 96 Kit) supplemented with 1% β-mercaptoethanol. Plates were then stored at ≤−60° C. freezer until RNA analysis.
Before RNA extraction, the frozen plate was thawed and cell lysates were transferred to 96-well plates. RNA isolation was performed using QIAcube HT System. RNA concentration was measured with NanoDrop ND-2000 spectrophotometer. The purity of RNA preparation was calculated by the ratio of the OD260 nm/OD280 nm and the acceptable range is between 1.8 and 2.2. Reverse transcription was performed to obtain cDNA. Quantification of the selective genes by real time quantitative Polymerase Chain Reaction (qPCR) was performed with TaqMan universal PCR Master Mix on the BIO-RAD CFX 384 Touch Real Time PCR System. The following setting were used: 50° C. for 2 minutes, 95° C. for 10 minutes, 40 cycles of 95° C. for 15 seconds and 60° C. for 1 minute. 18S rRNA was used as the internal standard.
To account for variation in RNA yields and reverse transcription polymerase chain reaction (RT-PCR), the gene of interest in all samples was normalized to an internal control gene (18S ribosomal RNA) (Cttarget gene−Ct18S=ΔCt).
The relative quantitation or change in mRNA level of selected genes induced by each test compound was expressed in relation to the vehicle control sample (Δctcompound−ΔCtvehicle=ΔΔCt). Fold changes in gene expression were determined by taking 2 to the power of this value (2^−ΔΔt).
% of positive control [(fold change in treated sample)−1]/[(fold change in positive control)−1]×100

[1] = Three time point assay for plasma, brain and testes distribution after oral dosing; format: in vivo, rat; conditions: rat, oral dosing
Procedure: Exemplary compounds were tested for distribution in plasma, brain and testes tissue following oral dosing of the compounds in rats. Procedures and results are described below.
Male SD Rats were group-housed (up to four animals/sex/cage) in polysulfone cages with certified aspen wood bedding during acclimation and study period.
Certified rodent diet and water was provided to all animals ad libitum, unless fasting for study procedures.
Appropriate amount of test article was accurately weighed and mixed with an appropriate volume of vehicle to get a clear solution or a uniform suspension; vortexing or sonication in water bath may also be need. Animals were dosed within four hours after the formulation is prepared.
For PO dosing, the dose formulation was administered via oral gavage following facility SOPs. The dose volume was determined by the animals' body weight collected on the morning of dosing day. The dose was 10 mg/kg.
Each blood collection (about 1 mL per time point at one or more of 0.5 h, 2 h, 3 h, 5.3 h, and 7 h) was performed from jugular vein or other suitable site of each animal into pre-chilled commercial EDTA-K2 tubes and placed on wet ice until centrifugation.
Blood samples were processed for plasma by centrifugation at approximately 4° C., 3,200 g for 10 min. Plasma was collected respectively and transferred into pre-labeled 96 well plate or polypropylene tubes, quick frozen over dry ice and kept at −60° C. or lower until LC-MS/MS analysis.
Rat brain was perfused with PBS to remove blood before harvest.
After perfusion, brain and testis were homogenized using homogenizing buffer (15 mM PBS (pH7.4):MeOH=2:1) at the ratio of 1:9 (1 g tissue with 9 mL buffer, the dilution ratio is 10). The brain homogenate was kept at −60° C. or lower until LC-MS/MS analysis. General sample processing procedure (brain homogenate & testis homogenate) using 96-well plate: • 1). An aliquot of 40 μL unknown sample, calibration standard, quality control and dilution quality control (if have), single blank, and double blank sample was added to the 96-well plate respectively; • 2). Each sample (except the double blank) was quenched with 400 μL of IS1 respectively (double blank sample was quenched with 400 μL of I), and then the mixture was vortex-mixed for 10 min at 800 rpm and centrifuged for 15 min at 3220×g, 4° C.; • 3). An aliquot of 50 μL supernatant was transferred to another clean 96-well plate and centrifuged for 5 min at 3220×g, 4° C., then the supernatant was directly injected for LC-MS/MS analysis.
• 1. A LC-MS/MS method for the quantitative determination of test compound in biological matrix was developed under Non-GLP compliance. • 2. A calibration curve with at least 6 non-zero calibration standards was applied for the method including LLOQ. • 3. A set of QCs consisting of low, middle, and high concentrations were applied for the method. • 4. N in 1 cassette LC-MS/MS method was developed for samples coming from different studies and the interference among all cassette analytes was evaluated during the method development. • 5. Cassette administration assay was performed if the mass difference (Δmass) among different analytes was more than 4 Da. In this case, interference evaluation was not necessary.
• 1. If sample number within a batch was ≤12, at least one set of standard curve separated with two parts through begin and end of the sequence, was included in the run, and QCs were not required. The recommended injection order was C8, C6, C4, C2, study samples, C7, C5, C3, C1. • 2. If sample number within a batch was >12, one standard curve and two sets of QCs with low, middle and high concentrations were applied for bioanalysis. Meanwhile, QCs number should be more than 5% of study sample number. • 3. Samples with the same types of matrix in different studies were quantified in one analysis run by using the developed N in 1 cassette LC-MS/MS method. • 4. […]

[2] = system: KIT phosphorylation in M-07e cells; assay: Cell-based KIT phosphorylation in M-07e cells by pKIT ELISA; parameters: species or system human; conditions: SCF stimulation
Procedure, shortened: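 Serum-starved M-07e cells (1 × 10^6/mL, overnight) were treated with compounds (8-point 3-fold series from 1 uM) for 2 h at 37 °C, then stimulated with 100 ng/mL SCF for 5 min. Lysate phospho-KIT was captured on anti-phospho-CD117 plates, detected with anti-pY-HRP, and read at 450 nm against a pc-KIT standard curve.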

wtKIT [3] = target: T1, wtKIT (Homo sapiens, UniProt P10721); assay: HTRF biochemical assay, wtKIT (phosphorylation of a peptide substrate); conditions: Table 4
T1 construct: 1888289AM in the reaction mixtures
Procedure, shortened: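 wtKIT (5.0 nM) phosphorylating 1 µM FAM-labelled peptide with 400 µM ATP and 10 mM MnCl2 in 100 mM HEPES pH 7.5, 1% DMSO, 3 h at 25 °C. EDTA quench; phosphopeptide detected with anti-phosphotyrosine antibody by HTRF. Enzyme titrated for 10-20% substrate conversion.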

[4] = target: T2, KIT-NanoLuc fusion in HEK293 cells (Homo sapiens, UniProt P10721); assay: NanoBRET cellular target engagement assay, KIT; format: cell-based
T2 construct: expressed in transfected cells; host or cells: HEK293, transient transfection
Procedure: Exemplary compounds were tested for their ability to inhibit target engagement of KIT or CSF-1R kinases through competitive displacement of a Nano-Luc luciferase kinase fusion in HEK293 cells.
The NanoBRET target engagement assay employs an energy transfer technique designed to measure molecular proximity in living cells. The assay measures the apparent affinity of test compounds by competitive displacement of the NanoBRET tracer, reversibly bound to a NanoLuc luciferase-kinase fusion construct in cells. The intracellular binding affinity and selectivity are physiologically relevant and fundamental to the pharmacological mechanism of the compounds. While biochemical and biophysical assays identify the kinase inhibitors in vitro, the NanoBRET target engagement assay serves to determine the direct interaction of the compounds binding to target kinases in cells.
HEK293 cells transiently expressing NanoLuc-DDR1 fusion vector were seeded into 384-well plates and treated with the Tracer K-4 and compound for 1 hour. The BRET signal was measured on an EnVision 2104 multilabel microplate reader. NanoBRET Target Engagement Assay in HEK293 cells transiently transfected with KIT and CSF1R-NanoLuc Fusion Vector. HEK293 cells were transfected with […] KIT or CSF1R-NanoLuc Fusion Vector and […] carrier DNA. The transfected cells were treated with test compounds (starting at 10 μM, 10-dose with 3-fold dilution) and reference compound (desatinib) (starting at 1 μM, 10-dose with 3-fold dilution). Percent inhibition due to compound activity was calculated to determine IC50.

PDGFRα [5] = target: T3, PDGFRα (Homo sapiens, UniProt P16234); assay: HTRF biochemical assay, PDGFRα; conditions: Table 4, read-out: PDFGRα Biochemical IC50 avg
T3 construct: purchased Millipore 14-467 (lot 26321_ACTI)
Procedure, shortened: (§1)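 Kinase phosphorylation of a FAM-labelled peptide substrate, with ATP and Mn^2+ cofactors, run for 3 h at 25 °C, with optional enzyme–compound pre-incubation. Reactions were quenched with EDTA, and phosphopeptide was detected by anti-phosphotyrosine antibody HTRF.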

CSF-1R [6] = target: T4, CSF-1R (Homo sapiens, UniProt P07333); assay: HTRF biochemical assay, CSF-1R; conditions: Table 4
T4 construct: purchased Invitrogen PV3249 (lot 662393N)
Procedure, shortened: as §1

CSF-1R [7] = target: T4, CSF-1R; assay: Caliper biochemical assay, CSF-1R; conditions: Table 6
Procedure, shortened: (§2)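 Kinase, FAM-labelled peptide substrate, ATP and Mn^2+ incubated with compound for 3 h at 25° C, then quenched with EDTA buffer. Substrate and phosphorylated product separated by microfluidic electrophoresis and quantified by fluorescence intensity; no-enzyme wells define 100% inhibition.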

PDGFRα [8] = target: T3, PDGFRα; assay: Caliper biochemical assay, PDGFRα; conditions: Table 6
Procedure, shortened: as §2

wtKIT [9] = target: T1, wtKIT; assay: Caliper biochemical assay, wtKIT; conditions: Table 6, read-out: KIT Biochemical IC50 avg
Procedure, shortened: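 Enzyme (5.0 nM wtKIT), 1 μM FAM-labelled peptide, 400 μM ATP and 10 mM MnCl2 in HEPES pH 7.5 with 1% DMSO, incubated 3 h at 25° C. EDTA quench; substrate and phosphoproduct separated by microfluidic electrophoresis and quantified by fluorescence.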

T3 sequence (P16234 24-1089): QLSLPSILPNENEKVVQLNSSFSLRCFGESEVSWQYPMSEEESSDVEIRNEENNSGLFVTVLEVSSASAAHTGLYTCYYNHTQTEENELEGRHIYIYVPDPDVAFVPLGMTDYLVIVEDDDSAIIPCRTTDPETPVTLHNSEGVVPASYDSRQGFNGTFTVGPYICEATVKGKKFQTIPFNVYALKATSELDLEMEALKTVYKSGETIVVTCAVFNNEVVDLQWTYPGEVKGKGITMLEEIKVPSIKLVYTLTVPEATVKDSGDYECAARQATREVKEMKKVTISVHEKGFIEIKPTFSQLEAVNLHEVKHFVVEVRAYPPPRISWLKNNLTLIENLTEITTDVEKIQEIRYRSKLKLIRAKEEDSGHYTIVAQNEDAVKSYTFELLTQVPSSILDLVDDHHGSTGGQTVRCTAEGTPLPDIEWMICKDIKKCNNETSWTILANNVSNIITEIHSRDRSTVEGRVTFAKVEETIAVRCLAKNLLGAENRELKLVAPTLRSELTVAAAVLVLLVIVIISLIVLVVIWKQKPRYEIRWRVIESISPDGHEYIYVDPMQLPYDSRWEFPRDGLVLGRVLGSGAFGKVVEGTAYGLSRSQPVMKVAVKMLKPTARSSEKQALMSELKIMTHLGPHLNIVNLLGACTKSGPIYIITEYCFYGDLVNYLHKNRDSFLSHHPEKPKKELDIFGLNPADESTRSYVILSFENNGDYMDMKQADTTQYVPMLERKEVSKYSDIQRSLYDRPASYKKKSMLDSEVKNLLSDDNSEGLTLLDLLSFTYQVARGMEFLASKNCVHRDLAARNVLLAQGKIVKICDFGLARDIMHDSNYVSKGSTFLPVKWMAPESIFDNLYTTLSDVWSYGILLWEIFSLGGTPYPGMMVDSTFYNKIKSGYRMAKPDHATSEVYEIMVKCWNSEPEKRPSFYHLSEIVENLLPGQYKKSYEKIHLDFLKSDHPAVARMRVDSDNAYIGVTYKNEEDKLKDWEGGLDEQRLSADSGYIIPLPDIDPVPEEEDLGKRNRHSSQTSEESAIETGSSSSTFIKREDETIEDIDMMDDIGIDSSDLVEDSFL
T4 sequence (P07333 20-972): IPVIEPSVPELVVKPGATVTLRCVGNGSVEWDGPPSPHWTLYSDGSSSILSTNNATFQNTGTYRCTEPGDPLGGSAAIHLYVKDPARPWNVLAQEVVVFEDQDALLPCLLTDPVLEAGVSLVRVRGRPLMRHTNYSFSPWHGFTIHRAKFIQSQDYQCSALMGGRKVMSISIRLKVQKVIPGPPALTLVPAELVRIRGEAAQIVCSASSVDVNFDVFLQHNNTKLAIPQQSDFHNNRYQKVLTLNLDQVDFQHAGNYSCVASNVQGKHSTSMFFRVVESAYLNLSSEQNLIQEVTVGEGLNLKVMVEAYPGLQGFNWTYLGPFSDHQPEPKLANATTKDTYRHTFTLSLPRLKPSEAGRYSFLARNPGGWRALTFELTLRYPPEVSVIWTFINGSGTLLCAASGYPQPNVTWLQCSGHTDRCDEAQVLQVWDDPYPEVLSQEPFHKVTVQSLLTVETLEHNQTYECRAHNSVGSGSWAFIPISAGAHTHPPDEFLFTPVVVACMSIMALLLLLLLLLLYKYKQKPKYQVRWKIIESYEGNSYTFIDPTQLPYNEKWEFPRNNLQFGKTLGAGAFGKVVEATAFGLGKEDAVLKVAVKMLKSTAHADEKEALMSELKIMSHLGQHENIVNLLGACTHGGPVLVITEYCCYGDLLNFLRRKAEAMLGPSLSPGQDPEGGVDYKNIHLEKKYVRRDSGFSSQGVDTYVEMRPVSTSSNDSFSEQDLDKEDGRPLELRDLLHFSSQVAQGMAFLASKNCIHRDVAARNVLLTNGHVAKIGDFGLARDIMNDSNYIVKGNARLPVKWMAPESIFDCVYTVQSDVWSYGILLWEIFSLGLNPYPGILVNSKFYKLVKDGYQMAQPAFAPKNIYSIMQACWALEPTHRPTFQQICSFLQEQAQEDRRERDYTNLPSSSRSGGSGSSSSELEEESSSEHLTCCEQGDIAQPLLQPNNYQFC
T1 sequence (P10721 26-976): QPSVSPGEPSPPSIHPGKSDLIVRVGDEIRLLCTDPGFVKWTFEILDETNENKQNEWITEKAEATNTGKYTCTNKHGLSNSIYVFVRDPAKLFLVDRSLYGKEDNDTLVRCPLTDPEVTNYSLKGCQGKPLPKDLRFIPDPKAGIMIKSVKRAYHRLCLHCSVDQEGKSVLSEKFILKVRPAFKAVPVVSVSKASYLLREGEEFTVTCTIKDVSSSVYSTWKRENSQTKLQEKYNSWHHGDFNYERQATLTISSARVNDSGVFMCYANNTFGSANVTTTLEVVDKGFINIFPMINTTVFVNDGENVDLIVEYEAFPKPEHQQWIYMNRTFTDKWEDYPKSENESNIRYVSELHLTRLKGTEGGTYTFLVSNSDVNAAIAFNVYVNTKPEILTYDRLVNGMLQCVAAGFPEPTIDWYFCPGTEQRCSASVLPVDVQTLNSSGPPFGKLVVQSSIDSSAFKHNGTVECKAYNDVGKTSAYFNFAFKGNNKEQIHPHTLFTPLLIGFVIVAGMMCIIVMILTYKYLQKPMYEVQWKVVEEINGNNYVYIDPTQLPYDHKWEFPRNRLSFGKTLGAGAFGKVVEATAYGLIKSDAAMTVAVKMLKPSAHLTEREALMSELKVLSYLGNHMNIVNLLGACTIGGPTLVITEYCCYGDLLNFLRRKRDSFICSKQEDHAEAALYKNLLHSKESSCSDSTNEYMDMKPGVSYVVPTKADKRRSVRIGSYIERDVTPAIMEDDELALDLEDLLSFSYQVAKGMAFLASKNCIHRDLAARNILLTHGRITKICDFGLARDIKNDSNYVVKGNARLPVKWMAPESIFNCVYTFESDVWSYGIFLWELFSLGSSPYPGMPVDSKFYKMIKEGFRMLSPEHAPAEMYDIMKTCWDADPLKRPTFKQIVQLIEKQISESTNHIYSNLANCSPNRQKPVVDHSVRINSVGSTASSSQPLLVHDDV
T2 sequence (P10721 26-976): as above

COc1ccn2c(C(=O)Nc3cc(-c4noc(CC(O)C(F)F)n4)ccc3C)cnc2c1 (single isomer, unassigned) [Compound I-40]
Solubility (μM) (Kinetic solubility assay): **** (a solubility less than or equal to 2 μM) | CYP 3A4 induction mRNA: Mean fold at 10 μM (CYP3A4; donor five): ++ (induction fold of greater than 2-fold to less than or equal to 3-fold) | CYP 3A4 induction mRNA: Mean fold at 10 μM (CYP3A4; donor one): +++ (induction fold of greater than 3-fold to less than or equal to 10-fold) | Brain concentration ([1]; time point 0.5 h): 63.2 ng/g | Kp brain/plasma ([1]; time point 0.5 h): 0.09 | Kp testes/plasma ([1]; time point 0.5 h): 0.17 | Plasma concentration ([1]; time point 0.5 h): 712 ng/mL | Testes concentration ([1]; time point 0.5 h): 123 ng/g | Brain concentration ([1]; time point 2 h): 144 ng/g | Kp brain/plasma ([1]; time point 2 h): 0.08 | Kp testes/plasma ([1]; time point 2 h): 0.32 | Plasma concentration ([1]; time point 2 h): 1770 ng/mL | Testes concentration ([1]; time point 2 h): 568 ng/g | Brain concentration ([1]; time point 7 h): 65.4 ng/g | Kp brain/plasma ([1]; time point 7 h): 0.09 | Kp testes/plasma ([1]; time point 7 h): 0.41 | Plasma concentration ([1]; time point 7 h): 764 ng/mL | Testes concentration ([1]; time point 7 h): 300 ng/g

Cc1nc(-c2ccc(C)c(NC(=O)c3cnc4cc(COCCO)ccn34)c2)no1 [Compound I-110]
Solubility (μM) (Kinetic solubility assay): * (a solubility greater than 50 μM) | IC50 [2]: 50 to 500 nM | IC50 (wtKIT [3]): ≤ 50 nM | IC50 [4]: ≤ 100 nM | IC50 (PDGFRα [5]): 500 to 5000 nM | IC50 (CSF-1R [6]): 500 to 5000 nM

CCc1nc(-c2ccc(C)c(NC(=O)c3cnc4ccccn34)c2)no1 [Compound I-283]
IC50 (CSF-1R [7]): ≤ 50 nM | Solubility (μM) (Kinetic solubility assay): ** (a solubility greater than 10 μM and less than or equal to 50 μM) | IC50 (PDGFRα [8]): 5000 to 30000 nM | CYP 3A4 induction mRNA: Mean fold at 10 μM (CYP3A4; donor two): ++++ (induction fold of greater than 10-fold) | IC50 (wtKIT [9]): ≤ 50 nM

Reference: patent publication US20240254119A1 (THIRD HARMONIC BIO, INC., priority 2022, published 2024)
